Results on 6 cell lines are retold here after the supplement of paper PMC10307832.

What all share (experiment): relative viability (nuclei count vs DMSO), 5 days (fraction); higher = more cells survive
Compound in the assay “KIN001-266 + Dasatinib”: CCN1CCC(CC1)N2C=C(N=N2)CNC3=CC4=C(C(=CN=C4C(=C3)Cl)C#N)NC5=CC(=C(C=C5)F)Cl [KIN001-266] + Cc1nc(Nc2ncc(C(=O)Nc3c(C)cccc3Cl)s2)cc(N2CCN(CCO)CC2)n1 [Dasatinib] (partner 0.075 µM)
A digest of the protocol:
(§1)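 Relative viability equals treated-well nuclei counts divided by vehicle-well nuclei counts. Counts came from 4× images of lung cancer cell lines grown in 1536-well plates for 5 days after pin-tool dosing on the day after seeding. Dosing used one drug alone or a fixed anchor-drug dose plus five library-drug doses (not always all listed) in √10 steps, and values are medians of duplicate plates.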

Compound in the assay “KIN001-266 + Bortezomib”: CCN1CCC(CC1)N2C=C(N=N2)CNC3=CC4=C(C(=CN=C4C(=C3)Cl)C#N)NC5=CC(=C(C=C5)F)Cl [KIN001-266] + CC(C)C[C@H](NC(=O)[C@H](Cc1ccccc1)NC(=O)c1cnccn1)B(O)O [Bortezomib] (partner 0.002 µM)
The method, boiled down:
as §1

Compound in the assay “KIN001-266 + Palbociclib”: CCN1CCC(CC1)N2C=C(N=N2)CNC3=CC4=C(C(=CN=C4C(=C3)Cl)C#N)NC5=CC(=C(C=C5)F)Cl [KIN001-266] + CC(=O)c1c(C)c2cnc(Nc3ccc(N4CCNCC4)cn3)nc2n(C2CCCC2)c1=O [Palbociclib] (partner 0.5 µM)
The method, boiled down:
as §1

Compound in the assay “KIN001-266 + Alpelisib”: CCN1CCC(CC1)N2C=C(N=N2)CNC3=CC4=C(C(=CN=C4C(=C3)Cl)C#N)NC5=CC(=C(C=C5)F)Cl [KIN001-266] + Cc1nc(NC(=O)N2CCC[C@H]2C(N)=O)sc1-c1ccnc(C(C)(C)C(F)(F)F)c1 [Alpelisib] (partner 2 µM)
A digest of the protocol: as §1

For the cell line HCC-366, the relative viability with KIN001-266 + Dasatinib (first compound 0.08 µM) turned out to be 0.783; in the assay with KIN001-266 + Dasatinib (first compound 0.253 µM), 0.591; with KIN001-266 + Dasatinib (first compound 0.8 µM), 0.627; with KIN001-266 + Dasatinib (first compound 2.53 µM), 0.656; with KIN001-266 + Dasatinib (first compound 8 µM), 0.656; with KIN001-266 + Bortezomib (first compound 0.08 µM), 1.04. For the same cell line, the relative viability in the assay with KIN001-266 + Bortezomib (first compound 0.253 µM) stood at 1.06; in the assay with KIN001-266 + Bortezomib (first compound 0.8 µM) it was 0.996; with KIN001-266 + Bortezomib (first compound 2.53 µM), 0.998; with KIN001-266 + Bortezomib (first compound 8 µM) it was 1.01; with KIN001-266 + Palbociclib (first compound 0.08 µM), 0.425; with KIN001-266 + Palbociclib (first compound 0.253 µM), 0.371. Also, the relative viability with KIN001-266 + Palbociclib (first compound 0.8 µM) amounted to 0.302; with KIN001-266 + Palbociclib (first compound 2.53 µM) it was 0.407; with KIN001-266 + Palbociclib (first compound 8 µM) it was 0.403; with KIN001-266 + Alpelisib (first compound 0.08 µM), 0.495; with KIN001-266 + Alpelisib (first compound 0.253 µM) it was 0.492; with KIN001-266 + Alpelisib (first compound 0.8 µM), 0.583. Also, the relative viability amounted to 0.374 in the assay with KIN001-266 + Alpelisib (first compound 2.53 µM) and 0.364 in the assay with KIN001-266 + Alpelisib (first compound 8 µM).

On to NCI-H1975, for which the relative viability with KIN001-266 + Dasatinib (first compound 0.08 µM) was determined as 0.396; in the assay with KIN001-266 + Dasatinib (first compound 0.253 µM) it was 0.355; in the assay with KIN001-266 + Dasatinib (first compound 0.8 µM), 0.344; in the assay with KIN001-266 + Dasatinib (first compound 2.53 µM), 0.388; with KIN001-266 + Dasatinib (first compound 8 µM), 0.319; in the assay with KIN001-266 + Bortezomib (first compound 0.08 µM) it was 0.373. Further, the relative viability with KIN001-266 + Bortezomib (first compound 0.253 µM) was found to be 0.462; in the assay with KIN001-266 + Bortezomib (first compound 0.8 µM), 0.404; with KIN001-266 + Bortezomib (first compound 2.53 µM), 0.336; with KIN001-266 + Bortezomib (first compound 8 µM), 0.336; in the assay with KIN001-266 + Palbociclib (first compound 0.08 µM), 0.709; with KIN001-266 + Palbociclib (first compound 0.253 µM) it was 0.553. Also, the relative viability with KIN001-266 + Palbociclib (first compound 0.8 µM) came to 0.551; in the assay with KIN001-266 + Palbociclib (first compound 2.53 µM), 0.609; with KIN001-266 + Palbociclib (first compound 8 µM) it was 0.505; with KIN001-266 + Alpelisib (first compound 0.08 µM), 0.696; in the assay with KIN001-266 + Alpelisib (first compound 0.253 µM), 0.75; with KIN001-266 + Alpelisib (first compound 0.8 µM), 0.667. Also, the relative viability with KIN001-266 + Alpelisib (first compound 2.53 µM) was 0.665; in the assay with KIN001-266 + Alpelisib (first compound 8 µM) it was 0.597.

In the case of NCI-H1437, the relative viability with KIN001-266 + Dasatinib (first compound 0.08 µM) turned out to be 0.413; in the assay with KIN001-266 + Dasatinib (first compound 0.253 µM), 0.421; with KIN001-266 + Dasatinib (first compound 0.8 µM) it was 0.346; with KIN001-266 + Dasatinib (first compound 2.53 µM), 0.369; with KIN001-266 + Dasatinib (first compound 8 µM), 0.249; in the assay with KIN001-266 + Bortezomib (first compound 0.08 µM) it was 0.534. In addition, the relative viability in the assay with KIN001-266 + Bortezomib (first compound 0.253 µM) turned out to be 0.435; with KIN001-266 + Bortezomib (first compound 0.8 µM), 0.514; in the assay with KIN001-266 + Bortezomib (first compound 2.53 µM), 0.493; in the assay with KIN001-266 + Bortezomib (first compound 8 µM), 0.447; with KIN001-266 + Palbociclib (first compound 0.08 µM), 0.34; with KIN001-266 + Palbociclib (first compound 0.253 µM), 0.33. In addition, the relative viability in the assay with KIN001-266 + Palbociclib (first compound 0.8 µM) worked out at 0.296; in the assay with KIN001-266 + Palbociclib (first compound 2.53 µM), 0.325; in the assay with KIN001-266 + Palbociclib (first compound 8 µM), 0.278; with KIN001-266 + Alpelisib (first compound 0.08 µM), 0.997; with KIN001-266 + Alpelisib (first compound 0.253 µM), 1.06; in the assay with KIN001-266 + Alpelisib (first compound 0.8 µM), 0.961. Further, the relative viability with KIN001-266 + Alpelisib (first compound 2.53 µM) was 0.858; with KIN001-266 + Alpelisib (first compound 8 µM), 0.495.

Regarding NCI-H2009, the relative viability with KIN001-266 + Dasatinib (first compound 0.08 µM) is 0.382; with KIN001-266 + Dasatinib (first compound 0.253 µM), 0.313; with KIN001-266 + Dasatinib (first compound 0.8 µM) it was 0.302; in the assay with KIN001-266 + Dasatinib (first compound 2.53 µM), 0.274; with KIN001-266 + Dasatinib (first compound 8 µM), 0.201; with KIN001-266 + Bortezomib (first compound 0.08 µM), 1.02. For the same cell line, the relative viability in the assay with KIN001-266 + Bortezomib (first compound 0.253 µM) was determined as 1.06; with KIN001-266 + Bortezomib (first compound 0.8 µM), 1.09; in the assay with KIN001-266 + Bortezomib (first compound 2.53 µM) it was 0.95; with KIN001-266 + Bortezomib (first compound 8 µM) it was 0.658; with KIN001-266 + Palbociclib (first compound 0.08 µM), 0.203; in the assay with KIN001-266 + Palbociclib (first compound 0.253 µM) it was 0.257. The relative viability in the assay with KIN001-266 + Palbociclib (first compound 0.8 µM) turned out to be 0.253; with KIN001-266 + Palbociclib (first compound 2.53 µM), 0.208; with KIN001-266 + Palbociclib (first compound 8 µM), 0.203; with KIN001-266 + Alpelisib (first compound 0.08 µM), 1.21; with KIN001-266 + Alpelisib (first compound 0.253 µM) it was 1.17; with KIN001-266 + Alpelisib (first compound 0.8 µM), 1.19. Besides, the relative viability was determined as 1.03 with KIN001-266 + Alpelisib (first compound 2.53 µM) and 0.983 with KIN001-266 + Alpelisib (first compound 8 µM).

For the cell line NCI-H1651, the relative viability with KIN001-266 + Dasatinib (first compound 0.08 µM) amounted to 0.43; with KIN001-266 + Dasatinib (first compound 0.253 µM), 0.421; in the assay with KIN001-266 + Dasatinib (first compound 0.8 µM) it was 0.388; with KIN001-266 + Dasatinib (first compound 2.53 µM), 0.472; with KIN001-266 + Dasatinib (first compound 8 µM) it was 0.411; with KIN001-266 + Bortezomib (first compound 0.08 µM), 0.98. For the same cell line, the relative viability in the assay with KIN001-266 + Bortezomib (first compound 0.253 µM) was 0.969; with KIN001-266 + Bortezomib (first compound 0.8 µM), 0.869; in the assay with KIN001-266 + Bortezomib (first compound 2.53 µM) it was 0.93; with KIN001-266 + Bortezomib (first compound 8 µM) it was 0.897; with KIN001-266 + Palbociclib (first compound 0.08 µM) it was 0.528; with KIN001-266 + Palbociclib (first compound 0.253 µM), 0.518. The relative viability amounted to 0.525 with KIN001-266 + Palbociclib (first compound 0.8 µM); 0.533 in the assay with KIN001-266 + Palbociclib (first compound 2.53 µM); 0.531 with KIN001-266 + Palbociclib (first compound 8 µM); 1.05 with KIN001-266 + Alpelisib (first compound 0.08 µM); 0.949 in the assay with KIN001-266 + Alpelisib (first compound 0.253 µM); 1.01 with KIN001-266 + Alpelisib (first compound 0.8 µM). Further, the relative viability worked out at 0.99 with KIN001-266 + Alpelisib (first compound 2.53 µM) and 0.865 with KIN001-266 + Alpelisib (first compound 8 µM).

Turning to LCLC-103H, the relative viability worked out at 0.538 with KIN001-266 + Dasatinib (first compound 0.08 µM); 0.494 with KIN001-266 + Dasatinib (first compound 0.253 µM); 0.436 with KIN001-266 + Dasatinib (first compound 0.8 µM); 0.519 with KIN001-266 + Dasatinib (first compound 2.53 µM); 0.452 in the assay with KIN001-266 + Dasatinib (first compound 8 µM); 1.18 with KIN001-266 + Bortezomib (first compound 0.08 µM). Further, the relative viability in the assay with KIN001-266 + Bortezomib (first compound 0.253 µM) is 1.15; with KIN001-266 + Bortezomib (first compound 0.8 µM), 1.08; with KIN001-266 + Bortezomib (first compound 2.53 µM), 1.08; in the assay with KIN001-266 + Bortezomib (first compound 8 µM), 0.986; with KIN001-266 + Palbociclib (first compound 0.08 µM) it was 0.453; in the assay with KIN001-266 + Palbociclib (first compound 0.253 µM), 0.492. Further, the relative viability with KIN001-266 + Palbociclib (first compound 0.8 µM) was found to be 0.466; in the assay with KIN001-266 + Palbociclib (first compound 2.53 µM), 0.456; with KIN001-266 + Palbociclib (first compound 8 µM), 0.433; in the assay with KIN001-266 + Alpelisib (first compound 0.08 µM), 0.906; in the assay with KIN001-266 + Alpelisib (first compound 0.253 µM) it was 0.975; with KIN001-266 + Alpelisib (first compound 0.8 µM), 0.951. The results for the relative viability in the assay with KIN001-266 + Alpelisib (first compound 2.53 µM) and with KIN001-266 + Alpelisib (first compound 8 µM) were 0.972 and 0.808, respectively.
